Measured values from US7776858B2, “Methods of treatment of chronic pain using eszopiclone” (Sepracor Inc., priority 2004, dated 2010).

System: subjects with insomnia related to rheumatoid arthritis
Test: Arthritis Self-Efficacy Scale, clinical study of eszopiclone 3 mg vs placebo
Type: in vivo, human
Description: The study was aimed at observing the effect of eszopiclone 3 mg compared to placebo on daytime function in subjects with insomnia related to rheumatoid arthritis. The study was a multicenter, randomized, double-blind, placebo controlled, parallel group study.
A total of 153 subjects were randomized. Among them, 77 received 3 mg of eszopiclone (ESZ) nightly (at bedtime) for four weeks and 76 received matching placebo (PBO). […] In addition, subjects had insomnia symptoms including wake time after sleep onset (WASO) of ≧45 minutes, and total sleep time ≦6.5 hours. Diagnosis of rheumatoid arthritis predated the onset of insomnia symptoms.
During the double blind treatment, subjects were dosed with 3 mg eszopiclone (ESZ) or matching placebo (PBO) nightly (at bedtime) for four weeks. Data was analyzed with one-sided significance tests.

[1] = 3 mg nightly, visit 5 (Week 4), ITT
[2] = 3 mg nightly, visit 5 (Week 4), ITT, ANCOVA
[3] = 3 mg nightly, visit 6 (EOS), ITT

For `CN1CCN(C(=O)O[C@H]2c3nccnc3C(=O)N2c2ccc(Cl)cn2)CC1` [Eszopiclone, (+) 6-(5-chloropyrid-2-yl)-5-(4-methylpiperazin-1-yl)carbonyloxy-7-oxo-6,7-dihydro-5H-pyrrolo[3-4-b]pyrazine], the “Arthritis Self-Efficacy Scale Pain subscale analyzed alone, difference” value (3 mg nightly vs placebo) was “statistically significant difference”, the “Arthritis Self-Efficacy Scale Pain subscale in combination with Other Symptoms, difference” value (3 mg nightly vs placebo) was “statistically significant difference” and the “effect on change from baseline to end of study (Week 4) in the Overall score for the Arthritis Self-Efficacy Scale” value (3 mg nightly vs placebo) was “significant effect”. The “Arthritis Self-Efficacy Scale Function, Change from Baseline, 25th Percentile” value [1] was −1.0, the “Arthritis Self-Efficacy Scale Function, Change from Baseline, 75th Percentile” value [1] was 13.5 and the “Arthritis Self-Efficacy Scale Function, Change from Baseline, Maximum” value [1] was 74.0. The “Arthritis Self-Efficacy Scale Function, Change from Baseline, Mean (SD)” value [1] was 4.8 (15.7), the “Arthritis Self-Efficacy Scale Function, Change from Baseline, Median” value [1] was 4.0 and the “Arthritis Self-Efficacy Scale Function, Change from Baseline, Minimum” value [1] was −34.0. For the same molecule, the “Arthritis Self-Efficacy Scale Function, Observed Value, 25th Percentile” value [1] was 45.5, the “Arthritis Self-Efficacy Scale Function, Observed Value, 75th Percentile” value [1] was 83.5 and the “Arthritis Self-Efficacy Scale Function, Observed Value, Maximum” value [1] was 90.0. For the same molecule, the “Arthritis Self-Efficacy Scale Function, Observed Value, Mean (SD)” value [1] was 62.0 (22.1), the “Arthritis Self-Efficacy Scale Function, Observed Value, Median” value [1] was 61.0 and the “Arthritis Self-Efficacy Scale Function, Observed Value, Minimum” value [1] was 13.0. For the same molecule, the “Arthritis Self-Efficacy Scale Other Symptoms, Change from Baseline, 25th Percentile” value [1] was −2.0, the “Arthritis Self-Efficacy Scale Other Symptoms, Change from Baseline, 75th Percentile” value [1] was 10.0 and the “Arthritis Self-Efficacy Scale Other Symptoms, Change from Baseline, Maximum” value [1] was 41.0. For the same molecule, the “Arthritis Self-Efficacy Scale Other Symptoms, Change from Baseline, Mean (SD)” value [1] was 3.5 (10.5), the “Arthritis Self-Efficacy Scale Other Symptoms, Change from Baseline, Median” value [1] was 3.0 and the “Arthritis Self-Efficacy Scale Other Symptoms, Change from Baseline, Minimum” value [1] was −26.0. The “Arthritis Self-Efficacy Scale Other Symptoms, Observed Value, 25th Percentile” value [1] was 31.5, the “Arthritis Self-Efficacy Scale Other Symptoms, Observed Value, 75th Percentile” value [1] was 50.0 and the “Arthritis Self-Efficacy Scale Other Symptoms, Observed Value, Maximum” value [1] was 59.0. The “Arthritis Self-Efficacy Scale Other Symptoms, Observed Value, Mean (SD)” value [1] was 39.3 (12.7), the “Arthritis Self-Efficacy Scale Other Symptoms, Observed Value, Median” value [1] was 40.0 and the “Arthritis Self-Efficacy Scale Other Symptoms, Observed Value, Minimum” value [1] was 6.0. The “Arthritis Self-Efficacy Scale Overall, Change from Baseline, 25th Percentile” value [1] was −1.6, the “Arthritis Self-Efficacy Scale Overall, Change from Baseline, 75th Percentile” value [1] was 26.0 and the “Arthritis Self-Efficacy Scale Overall, Change from Baseline, Maximum” value [1] was 124.0. The “Arthritis Self-Efficacy Scale Overall, Change from Baseline, Mean (SD)” value [1] was 11.5 (29.3), the “Arthritis Self-Efficacy Scale Overall, Change from Baseline, Median” value [1] was 12.0 and the “Arthritis Self-Efficacy Scale Overall, Change from Baseline, Minimum” value [1] was −74.0. For the same molecule, the “Arthritis Self-Efficacy Scale Overall, Observed Value, 25th Percentile” value [1] was 103.0, the “Arthritis Self-Efficacy Scale Overall, Observed Value, 75th Percentile” value [1] was 162.5 and the “Arthritis Self-Efficacy Scale Overall, Observed Value, Maximum” value [1] was 189.0. For the same molecule, the “Arthritis Self-Efficacy Scale Overall, Observed Value, Mean (SD)” value [1] was 130.9 (38.2), the “Arthritis Self-Efficacy Scale Overall, Observed Value, Median” value [1] was 132.6 and the “Arthritis Self-Efficacy Scale Overall, Observed Value, Minimum” value [1] was 27.0. The “Arthritis Self-Efficacy Scale Pain and Other Symptoms, Change from Baseline, 25th Percentile” value [1] was 1.0, the “Arthritis Self-Efficacy Scale Pain and Other Symptoms, Change from Baseline, 75th Percentile” value [1] was 13.0 and the “Arthritis Self-Efficacy Scale Pain and Other Symptoms, Change from Baseline, Maximum” value [1] was 50.0. The “Arthritis Self-Efficacy Scale Pain and Other Symptoms, Change from Baseline, Mean (SD)” value [1] was 6.9 (16.4), the “Arthritis Self-Efficacy Scale Pain and Other Symptoms, Change from Baseline, Median” value [1] was 6.0 and the “Arthritis Self-Efficacy Scale Pain and Other Symptoms, Change from Baseline, Minimum” value [1] was −46.0. The “Arthritis Self-Efficacy Scale Pain and Other Symptoms, Observed Value, 25th Percentile” value [1] was 53.5, the “Arthritis Self-Efficacy Scale Pain and Other Symptoms, Observed Value, 75th Percentile” value [1] was 86.0 and the “Arthritis Self-Efficacy Scale Pain and Other Symptoms, Observed Value, Maximum” value [1] was 101.0. For the same molecule, the “Arthritis Self-Efficacy Scale Pain and Other Symptoms, Observed Value, Mean (SD)” value [1] was 68.5 (21.1), the “Arthritis Self-Efficacy Scale Pain and Other Symptoms, Observed Value, Median” value [1] was 69.7 and the “Arthritis Self-Efficacy Scale Pain and Other Symptoms, Observed Value, Minimum” value [1] was 14.0. The “Arthritis Self-Efficacy Scale Pain, Change from Baseline, 25th Percentile” value [1] was −1.0, the “Arthritis Self-Efficacy Scale Pain, Change from Baseline, 75th Percentile” value [1] was 10.5 and the “Arthritis Self-Efficacy Scale Pain, Change from Baseline, Maximum” value [1] was 30.0. The “Arthritis Self-Efficacy Scale Pain, Change from Baseline, Mean (SD)” value [1] was 3.3 (10.5), the “Arthritis Self-Efficacy Scale Pain, Change from Baseline, Median” value [1] was 3.0 and the “Arthritis Self-Efficacy Scale Pain, Change from Baseline, Minimum” value [1] was −37.0. For the same molecule, the “Arthritis Self-Efficacy Scale Pain, Observed Value, 25th Percentile” value [1] was 22.0, the “Arthritis Self-Efficacy Scale Pain, Observed Value, 75th Percentile” value [1] was 38.0 and the “Arthritis Self-Efficacy Scale Pain, Observed Value, Maximum” value [1] was 50.0. The “Arthritis Self-Efficacy Scale Pain, Observed Value, Median” value [1] was 28.0, the “Arthritis Self-Efficacy Scale Pain, Observed Value, Minimum” value [1] was 8.0 and the “Arthritis Self-Efficacy Scale Function, Change from Baseline, Least Squares Means (SE) [2]” value [2] was 4.2 (1.7). The “Arthritis Self-Efficacy Scale Other Symptoms, Change from Baseline, Least Squares Means (SE) [2]” value [2] was 3.4 (1.2), the “Arthritis Self-Efficacy Scale Overall, Change from Baseline, Least Squares Means (SE) [2]” value [2] was 10.4 (3.2) and the “Arthritis Self-Efficacy Scale Pain and Other Symptoms, Change from Baseline, Least Squares Means (SE) [2]” value [2] was 6.6 (1.9). The “Arthritis Self-Efficacy Scale Pain, Change from Baseline, Least Squares Means (SE) [2]” value [2] was 3.1 (1.0), the “Arthritis Self-Efficacy Scale Function, Change from Baseline, 25th Percentile” value [3] was −1.0 and the “Arthritis Self-Efficacy Scale Function, Change from Baseline, 75th Percentile” value [3] was 14.0. For the same molecule, the “Arthritis Self-Efficacy Scale Function, Change from Baseline, Maximum” value [3] was 58.0, the “Arthritis Self-Efficacy Scale Function, Change from Baseline, Mean (SD)” value [3] was 6.8 (15.6) and the “Arthritis Self-Efficacy Scale Function, Change from Baseline, Median” value [3] was 5.0. For the same molecule, the “Arthritis Self-Efficacy Scale Function, Change from Baseline, Minimum” value [3] was −45.0, the “Arthritis Self-Efficacy Scale Function, Observed Value, 25th Percentile” value [3] was 45.0 and the “Arthritis Self-Efficacy Scale Function, Observed Value, 75th Percentile” value [3] was 85.0.
